Results: patent US20080153791A1, “11Beta -Hydroxysteroid Dehydrogenases” (onpharm GmbH, priority 2005, published 2008)
Read-outs that look alike come from different tables or passages of the source.

Key:
[1] = target: T1, human 11β-HSD2 (Homo sapiens, UniProt P80365); test: 11β-HSD2 oxidase activity (cortisol to cortisone) in lysates of stably transfected HEK-293 cells; assay type: biochemical; settings: for remaining activity at 20 µM: read-out: 11β-HSD2 % of control
T1 construct: expressed in transfected cells
T1 sequence (P80365 1-405): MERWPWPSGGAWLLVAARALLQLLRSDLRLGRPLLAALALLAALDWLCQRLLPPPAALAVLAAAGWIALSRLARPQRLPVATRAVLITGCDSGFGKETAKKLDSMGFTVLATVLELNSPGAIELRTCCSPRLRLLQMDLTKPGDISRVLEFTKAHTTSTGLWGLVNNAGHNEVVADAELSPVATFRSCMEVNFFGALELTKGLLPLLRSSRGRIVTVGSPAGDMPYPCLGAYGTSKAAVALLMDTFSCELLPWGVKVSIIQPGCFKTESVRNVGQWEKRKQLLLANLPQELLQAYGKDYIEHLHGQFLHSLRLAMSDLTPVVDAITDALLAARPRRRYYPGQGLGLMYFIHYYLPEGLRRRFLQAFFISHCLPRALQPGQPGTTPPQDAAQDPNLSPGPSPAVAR
Protocol: (§1) Cells were grown in 10 cm dishes to 80% confluence and incubated for 16 h in steroid-free medium (charcoal-treated fetal calf serum (FCS) from HyClone, Logan, Utah). Cells were rinsed once with phosphate-buffered saline (PBS), detached and centrifuged for 3 min at 150×g. The supernatant was removed and the cell pellet quick-frozen in a dry-ice ethanol bath. At the day of experiment, cell pellets were resuspended in buffer TS2 (100 mM NaCl, 1 mM EGTA, 1 mM EDTA, 1 mM MgCl2, 250 mM sucrose, 20 mM Tris-HCl, pH 7.4), sonicated and activities determined immediately. The rate of conversion of cortisol to cortisone or the reverse reaction was determined in 96-well optical PCR reaction plates (Applied Biosystems, Foster City, Calif.) in a final volume of 22 μl, and the tubes were capped during the reaction to avoid evaporation.
Reactions were initiated by simultaneously adding 10 μl of cell lysate and 12 μl of TS2 buffer containing the appropriate concentration of the inhibitory compound to be tested, NAD^+, 30 nCi of [1,2,6,7-^3H]-cortisol and unlabeled cortisol. […] Stock solutions of the inhibitors in methanol or DMSO were diluted in TS2 buffer to yield the appropriate concentrations, whereby the concentration of methanol or DMSO in the reactions were kept below 0.1%. Control reactions with or without 0.1% of the solvent were performed. Incubation was at 37° C. for 10 min with shaking, reactions were terminated by adding 10 μl of stop solution containing 2 mM of unlabeled cortisol and cortisone dissolved in methanol. The conversion of radiolabeled cortisol was determined by separation of cortisol and cortisone using TLC and a solvent system of 9:1 (v/v) chloroform:methanol, followed by scintillation counting.
(§2) Enzyme kinetics were analyzed by non-linear regression using Data Analysis Toolbox (MDL Information Systems Inc.) assuming first-order rate kinetics. Data represent mean ±SD of four to five independent experiments.
(§3) Assay with 20 μM of the corresponding compound in the reaction mixture, added simultaneously with the substrate:
(§4) Determination of IC50 values, using 7 different inhibitor concentrations at factor 2 intervals: […]

[2] = target: T2, human 11β-HSD1 (Homo sapiens, UniProt P28845); test: 11β-HSD1 reductase activity (cortisone to cortisol) in lysates of stably transfected HEK-293 cells; assay type: biochemical; settings: for remaining activity at 20 µM: 20 μM compound, 100 nM cortisone, HEK-293 cell lysates, read-out: 11β-HSD1 % of control; for IC50: cell lysates
T2 construct: expressed in transfected cells
Protocol: as §1
Reactions were initiated simultaneously by adding 10 μl of cell lysate and 12 μl of TS2 buffer containing the appropriate concentration of the inhibitory compound to be tested, NADPH, 30 nCi of [1,2,6,7-^3H]-cortisone and unlabeled cortisone, whereby final concentrations were 400 μM NADPH and 100 nM cortisone. Activities were determined immediately after cell disruption by measuring the conversion of radiolabeled cortisone to cortisol for 10 min.
as §2, §3, §4

[3] = 20 μM compound, 25 nM cortisol, HEK-293 cell lysates
[4] = cell lysates, 7 inhibitor concentrations at factor 2 intervals, experiment 2, read-out: IC 50 11β-HSD2, determination 2
[5] = cell lysates, 7 inhibitor concentrations at factor 2 intervals, experiment 3, read-out: IC 50 11β-HSD2, determination 3

T2 sequence (P28845 whole entry): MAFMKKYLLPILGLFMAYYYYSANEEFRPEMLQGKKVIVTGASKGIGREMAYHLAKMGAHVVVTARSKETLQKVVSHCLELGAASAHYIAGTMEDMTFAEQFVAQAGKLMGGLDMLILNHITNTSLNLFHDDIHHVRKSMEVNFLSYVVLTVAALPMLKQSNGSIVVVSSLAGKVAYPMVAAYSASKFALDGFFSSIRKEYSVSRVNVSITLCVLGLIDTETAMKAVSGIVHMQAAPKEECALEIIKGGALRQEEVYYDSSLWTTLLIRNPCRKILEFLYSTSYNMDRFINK

Structure (SMILES)	remaining activity at 20 µM [1, 3] [%]	remaining activity at 20 µM [2] [%]	further results
COCCC1C(=O)C(O)=C(C(=O)c2ccc(OC)c(C)c2)C1c1ccc(Cl)cc1Cl (stereo not drawn) [BNW9]	77.4	30.7	–
CC1(C)[C@@H](N)CC[C@]2(C)[C@H]3C(=O)C=C4[C@@H]5C[C@@](C)(C(=O)O)CC[C@]5(C)CC[C@@]4(C)[C@]3(C)CC[C@@H]12 [BNW25, (2S,4aS,6aS,6bR,8aR,10S,12aS,12bR,14bR)-10-Amino-2,4a,6a,6b,9,9,12a-heptamethyl-13-oxo-1,2,3,4,4a,5,6,6a,6b,7,8,8a,9,10,11,12,12a,12b,13,14b-icosahydro-picene−2-carboxyiic acid]	–	2.9	IC50 [1, 4]: 54.6 nM; IC50 [1, 5]: 64.9 nM; remaining activity at 20 µM [1]: 13.9%; IC50 ([1]; read-out: IC 50 11β-HSD2, Mean): 59.7 nM; IC50 ([2]; mean of determinations 1-3, read-out: IC 50 11β-HSD1, Mean): 172 nM
Cc1nn(CC(=O)Nc2sc(C)c(C)c2C(N)=O)c(C)c1[N+](=O)[O-] [BNW4]	95	82.2	–
COC(=O)[C@@]1(C)CC[C@]2(C)CC[C@]3(C)C(=CC(=O)[C@@H]4[C@@]5(C)CC[C@H](Oc6ccccc6C(=O)O)C(C)(C)[C@@H]5CC[C@]43C)[C@@H]2C1 [BNW13, (2S,4aS,6aS,6bR,8aR,10S,12aS,12bR,14bR)-10-(2-Carboxy-phenoxy)-2,4a,6a,6b,9,9,12a-heptamethyl-13-oxo-1,2,3,4,4a,5,6,6a,6b,7,8,8a,9,10,11,12,12a,12b,13,14b-icosahydro-picene-2-carboxylic acid methyl ester]	14.4	3.9	IC50 [1, 4]: 263 nM; IC50 [1, 5]: 299 nM; IC50 ([2]; 7 inhibitor concentrations at factor 2 intervals, experiment 1, read-out: IC 50 11β-HSD1, determination 1): 666 nM; IC50 ([2]; 7 inhibitor concentrations at factor 2 intervals, experiment 2, read-out: IC 50 11β-HSD1, determination 2): 756 nM; IC50 ([2]; 7 inhibitor concentrations at factor 2 intervals, experiment 3, read-out: IC 50 11β-HSD1, determination 3): 652 nM
CCN(CC(O)COc1cc(C)c(Cl)c(C)c1)S(=O)(=O)O (stereo not drawn) [BNW1]	96.8	102	–
CC1(C)[C@@H](OCO)CC[C@]2(C)[C@H]3C(=O)C=C4C5=C[C@@](C)(C(=O)O)CC[C@]5(C)CC[C@@]4(C)[C@]3(C)CC[C@@H]12 [BNW15]	56.9	50.4	–
COc1ccc(OC)c(C2C(C(=O)c3ccc(Br)cc3)=C(O)C(=O)N2CCCn2ccnc2)c1 (stereo not drawn) [BNW2]	78	78.8	–
CCN(CC)S(=O)(=O)c1ccc(Cl)c(C(=O)Nc2nc3ccc(S(C)(=O)=O)cc3s2)c1 [BNW12]	132	85.4	–
COc1cc2c(cc1OC)C(COc1ccc([N+](=O)[O-])cc1)N(C(=O)c1ccc(Cl)c([N+](=O)[O-])c1)CC2 (stereo not drawn) [BNW27]	126	78.6	–
CCCCOc1ccc(C(=O)C2=C(O)C(=O)N(CCOC)C2c2cccnc2)c(C)c1 (stereo not drawn) [BNW3]	53.6	60.3	–
Cc1n[nH]c(O)c1C(c1ccc(-c2ccc(Cl)c(C(=O)O)c2)o1)c1c(O)n[nH]c1C [BNW5]	97.5	69.8	–
COc1ccc(C(=O)NCc2cccc(Cl)c2Cl)c(C(F)(F)F)c1 [BNW6]	145	79.6	–
Cc1cccc(C)c1C1C(SCC(=O)Nc2c(Cl)cccc2Cl)=NN=C1c1cccc([S+]([O-])N(C)C)c1 (stereo not drawn) [BNW11]	121	70.1	–
NC(=O)c1c(NC(=O)C2CC=CCC2C(=O)O)sc2c1CCCCC2 (stereo not drawn) [BNW8]	103	41.7	–

The next lines start with results.

remaining activity at 20 µM [1, 3] [%]	remaining activity at 20 µM [2] [%]	Structure (SMILES)	further results
121	46.8	COCCN1C(=O)C(O)=C(C(=O)c2ccc(OC)c(C)c2)C1c1ccc(C)cc1 (stereo not drawn) [BNW20]	–
137	94.1	COc1ccc(CNC(=O)C2CCC(=O)N2C2CCCC2)cc1OC (stereo not drawn) [BNW26]	–
104	41.3	CCOc1ccc(C2C(C(=O)c3ccc(Cl)cc3)=C(O)C(=O)N2CCCn2ccnc2)cc1OCC (stereo not drawn) [BNW22]	–
120	88.2	CCOc1ccc(C2c3cc(OCC)c(OCC)cc3CC(=O)N2c2ccc(C(=O)O)cc2)cc1OCC (stereo not drawn) [BNW17]	–
140	48.4	CCC(Sc1nnc(-c2ccc(OC)c(OC)c2)c(-c2ccc(OC)c(OC)c2)n1)C(=O)N(CC)CC (stereo not drawn) [BNW30]	–
82.8	92	CSc1nc2cc(C)c(C)cc2n1C1OC(CO)C(O)C1O (stereo not drawn) [BNW18]	–
115	75.3	CCN(CC)S(=O)(=O)c1ccc(OC)c(-c2nnc(-c3cc(S(=O)(=O)N(CC)CC)ccc3OC)o2)c1 [BNW29]	–
137	76.7	COc1cc(/C=N/NC(=O)CSc2nc3ccccc3n2Cc2ccc(C)cc2)cc(OC)c1OC(C)=O [BNW28]	–
133	85.1	COc1cccc(/C=N/NC(=O)CSCc2ccccc2C)c1OC [BNW23]	–
122	48.9	COc1ccc(C(=O)C2=C(O)C(=O)N(CCCn3ccnc3)C2c2ccccc2)cc1Cl (stereo not drawn) [BNW21]	–
